Where a name gives a salt, the structure may show the parent alone.
Tests used:
[1] = Stability evaluation under accelerated condition (40° C., RH 75%); type: physicochemical
Method: Long-term stability over twelve months was evaluated at 25° C. and a relative humidity of 60%; or accelerated stability over six months was evaluated at 40° C. and a relative humidity of 75%.

[2] = Thermogravimetric analysis (TGA); type: physicochemical
Method: The DTA curve of a test sample has an endothermic peak at 198.1° C., which is consistent with the DSC result.

[3] = Month 0, limit 0.10%, listed as 151211
[4] = Month 0, limit 0.10%, listed as 151212
[5] = Month 0, limit 0.10%, listed as 151213
[6] = Month 1, limit 0.10%, listed as 151211
[7] = Month 1, limit 0.10%, listed as 151212
[8] = Month 1, limit 0.10%, listed as 151213
[9] = Month 1, limit 0.17%, listed as 151211
[10] = Month 1, limit 0.17%, listed as 151212
[11] = Month 1, limit 0.17%, listed as 151213
[12] = Month 2, limit 0.10%, listed as 151211
[13] = Month 2, limit 0.10%, listed as 151212
[14] = Month 2, limit 0.10%, listed as 151213
[15] = Month 2, limit 0.17%, listed as 151211
[16] = Month 2, limit 0.17%, listed as 151212
[17] = Month 2, limit 0.17%, listed as 151213
[18] = Month 3, limit 0.10%, listed as 151211
[19] = Month 3, limit 0.10%, listed as 151212
[20] = Month 3, limit 0.10%, listed as 151213
[21] = Month 6, limit 0.10%, listed as 151211
[22] = Month 6, limit 0.10%, listed as 151212
[23] = Month 6, limit 0.10%, listed as 151213
[24] = Month 6, limit 0.17%, listed as 151211
[25] = Month 6, limit 0.17%, listed as 151212
[26] = Month 6, limit 0.17%, listed as 151213

SMILES: CNC(=O)c1cc(OCc2nnc(Nc3ccc(Cl)cc3)c3ccoc23)ccn1 [EOC315 crystalline form Mod. I, 4-(4-chloroanilino)-7-(2-methylaminocarbonyl-4-oxymethyl)pyridylfuro[2,3-d]pyridazine mesylate]
- Related substance Impurity 5 [1, 3]: 0.02%
- Related substance Impurity 6 [1, 3]: 0.01%
- Related substance Impurity 5 [1, 4]: 0.01%
- Related substance Impurity 6 [1, 4]: Undetected
- Related substance Impurity 5 [1, 5]: Undetected
- Related substance Impurity 6 [1, 5]: Undetected
- Related substance Maximum single impurity ([1]; Month 0, limit 0.15%, listed as 151211): 0.0079%
- Related substance Maximum single impurity ([1]; Month 0, limit 0.15%, listed as 151212): 0.012%
- Related substance Maximum single impurity ([1]; Month 0, limit 0.15%, listed as 151213): 0.0085%
- Related substance Impurity 1 ([1]; Month 0, limit 0.17%): Undetected
- Related substance Impurity 2 ([1]; Month 0, limit 0.17%): Undetected
- Related substance Impurity 3 ([1]; Month 0, limit 0.17%, listed as 151211): 0.016%
- Related substance Impurity 3 ([1]; Month 0, limit 0.17%, listed as 151212): 0.011%
- Related substance Impurity 3 ([1]; Month 0, limit 0.17%, listed as 151213): 0.011%
- Related substance Total impurity ([1]; Month 0, limit 1.0%, listed as 151211): 0.53%
- Related substance Total impurity ([1]; Month 0, limit 1.0%, listed as 151212): 0.66%
- Related substance Total impurity ([1]; Month 0, limit 1.0%, listed as 151213): 0.52%
- Related substance Impurity 4 ([1]; Month 0, limit 3.0%, listed as 151211): 0.36%
- Related substance Impurity 4 ([1]; Month 0, limit 3.0%, listed as 151212): 0.46%
- Related substance Impurity 4 ([1]; Month 0, limit 3.0%, listed as 151213): 0.35%
- Crystalline form ([1]; Month 0, limit ModI): ModI
- Related substance Impurity 5 [1, 6]: Undetected
- Related substance Impurity 6 [1, 6]: 0.01%
- Related substance Impurity 5 [1, 7]: 0.01%
- Related substance Impurity 6 [1, 7]: Undetected
- Related substance Impurity 5 [1, 8]: 0.01%
- Related substance Impurity 6 [1, 8]: Undetected
- Related substance Maximum single impurity ([1]; Month 1, limit 0.15%, listed as 151211): 0.011%
- Related substance Maximum single impurity ([1]; Month 1, limit 0.15%, listed as 151212): Undetected
- Related substance Maximum single impurity ([1]; Month 1, limit 0.15%, listed as 151213): 0.0077%
- Related substance Impurity 1 ([1]; Month 1, limit 0.17%): Undetected
- Related substance Impurity 2 [1, 9]: 0.0031%
- Related substance Impurity 3 [1, 9]: 0.0040%
- Related substance Impurity 2 [1, 10]: 0.0026%
- Related substance Impurity 3 [1, 10]: 0.0037%
- Related substance Impurity 2 [1, 11]: Undetected
- Related substance Impurity 3 [1, 11]: 0.0035%
- Related substance Total impurity ([1]; Month 1, limit 1.0%, listed as 151211): 0.5%
- Related substance Total impurity ([1]; Month 1, limit 1.0%, listed as 151212): 0.6%
- Related substance Total impurity ([1]; Month 1, limit 1.0%, listed as 151213): 0.5%
- Related substance Impurity 4 ([1]; Month 1, limit 3.0%, listed as 151211): 0.4%
- Related substance Impurity 4 ([1]; Month 1, limit 3.0%, listed as 151212): 0.5%
- Related substance Impurity 4 ([1]; Month 1, limit 3.0%, listed as 151213): 0.3%
- Related substance Impurity 5 [1, 12]: Undetected
- Related substance Impurity 6 [1, 12]: 0.01%
- Related substance Impurity 5 [1, 13]: 0.02%
- Related substance Impurity 6 [1, 13]: Undetected
- Related substance Impurity 5 [1, 14]: Undetected
- Related substance Impurity 6 [1, 14]: Undetected
- Related substance Maximum single impurity ([1]; Month 2, limit 0.15%, listed as 151211): 0.0045%
- Related substance Maximum single impurity ([1]; Month 2, limit 0.15%, listed as 151212): 0.0062%
- Related substance Maximum single impurity ([1]; Month 2, limit 0.15%, listed as 151213): 0.0067%
- Related substance Impurity 1 ([1]; Month 2, limit 0.17%): Undetected
- Related substance Impurity 2 [1, 15]: Undetected
- Related substance Impurity 3 [1, 15]: 0.0013%
- Related substance Impurity 2 [1, 16]: 0.0036%
- Related substance Impurity 3 [1, 16]: 0.0070%
- Related substance Impurity 2 [1, 17]: 0.0035%
- Related substance Impurity 3 [1, 17]: 0.014%
- Related substance Total impurity ([1]; Month 2, limit 1.0%, listed as 151211): 0.6%
- Related substance Total impurity ([1]; Month 2, limit 1.0%, listed as 151212): 0.7%
- Related substance Total impurity ([1]; Month 2, limit 1.0%, listed as 151213): 0.6%
- Related substance Impurity 4 ([1]; Month 2, limit 3.0%, listed as 151211): 0.4%
- Related substance Impurity 4 ([1]; Month 2, limit 3.0%, listed as 151212): 0.5%
- Related substance Impurity 4 ([1]; Month 2, limit 3.0%, listed as 151213): 0.4%
- Related substance Impurity 5 [1, 18]: 0.01%
- Related substance Impurity 6 [1, 18]: 0.02%
- Related substance Impurity 5 [1, 19]: 0.01%
- Related substance Impurity 6 [1, 19]: Undetected
- Related substance Impurity 5 [1, 20]: Undetected
- Related substance Impurity 6 [1, 20]: 0.01% d
- Related substance Maximum single impurity ([1]; Month 3, limit 0.15%): Undetected
- Related substance Impurity 1 ([1]; Month 3, limit 0.17%): Undetected
- Related substance Impurity 2 ([1]; Month 3, limit 0.17%): Undetected
- Related substance Impurity 3 ([1]; Month 3, limit 0.17%): Undetected
- Related substance Total impurity ([1]; Month 3, limit 1.0%, listed as 151211): 0.5%
- Related substance Total impurity ([1]; Month 3, limit 1.0%, listed as 151212): 0.6%
- Related substance Total impurity ([1]; Month 3, limit 1.0%, listed as 151213): 0.5%
- Related substance Impurity 4 ([1]; Month 3, limit 3.0%, listed as 151211): 0.4%
- Related substance Impurity 4 ([1]; Month 3, limit 3.0%, listed as 151212): 0.5%
- Related substance Impurity 4 ([1]; Month 3, limit 3.0%, listed as 151213): 0.37%
- Related substance Impurity 5 [1, 21]: 0.01%
- Related substance Impurity 6 [1, 21]: 0.01%
- Related substance Impurity 5 [1, 22]: 0.01%
- Related substance Impurity 6 [1, 22]: Undetected
- Related substance Impurity 5 [1, 23]: Undetected
- Related substance Impurity 6 [1, 23]: Undetected
- Related substance Maximum single impurity ([1]; Month 6, limit 0.15%, listed as 151211): 0.030%
- Related substance Maximum single impurity ([1]; Month 6, limit 0.15%, listed as 151212): 0.032%
- Related substance Maximum single impurity ([1]; Month 6, limit 0.15%, listed as 151213): 0.029%
- Related substance Impurity 1 ([1]; Month 6, limit 0.17%): Undetected
- Related substance Impurity 2 [1, 24]: 0.0061%
- Related substance Impurity 3 [1, 24]: 0.045%
- Related substance Impurity 2 [1, 25]: 0.0043%
- Related substance Impurity 3 [1, 25]: 0.044%
- Related substance Impurity 2 [1, 26]: 0.045%
- Related substance Impurity 3 [1, 26]: 0.060%
- Related substance Total impurity ([1]; Month 6, limit 1.0%, listed as 151211): 0.7%
- Related substance Total impurity ([1]; Month 6, limit 1.0%, listed as 151212): 0.8%
- Related substance Total impurity ([1]; Month 6, limit 1.0%, listed as 151213): 0.7%
- Related substance Impurity 4 ([1]; Month 6, limit 3.0%, listed as 151211): 0.4%
- Related substance Impurity 4 ([1]; Month 6, limit 3.0%, listed as 151212): 0.5%
- Related substance Impurity 4 ([1]; Month 6, limit 3.0%, listed as 151213): 0.4%
- Crystalline form ([1]; Month 6, limit ModI): ModI
- degradation temperature [2]: about 241.71 °C
